Measurements from patent US12186414B2, “Composition and method for endodontic debridement” (priority 2018, dated 2025).

Legend:
[1] = Self-assessment of pain before and after endodontic treatment (Control vs Experimental); format: in vivo, patients; settings: for self-assessed pain, 6 hours / self-assessed pain, 24 hours / self-assessed pain, 48 hours / self-assessed pain, 120 hours / self-assessed pain, Before: scale of 1-10; for self-assessed pain, 6 hours: 6 hours following endodontic treatment; for self-assessed pain, 24 hours: 24 hours following endodontic treatment; for self-assessed pain, 48 hours: 48 hours following endodontic treatment; for self-assessed pain, 120 hours: 120 hours following endodontic treatment; for self-assessed pain, Before: prior to endodontic treatment (baseline)
Description: Use of TCA during endodontic treatment is associated with decreased incidence of pain following endodontic treatment. Without wishing to be bound by the theory, it is believed that the TCA composition eliminates unmyelinated C fibers in the apical pulp, particularly in mandibular molars. To assess the decreased pain, individuals were asked to provide a self-assessment, on a scale of 1-10, of pain prior to endodontic treatment, and 6, 24, 48, and 120 hours following endodontic treatment. Patients were divided into two groups, one group (Control, N=9) receiving standard endodontic treatment including sodium hypochlorite as the primary irrigant, with occasional (as necessary) flushes with 17% EDTA, and one group (Experimental, N=10) receiving endodontic treatment including the composition described herein as a pre-treatment applied to pulp to facilitate navigating calcified canals and after initial shaping with patency. The experimental group received sodium hypochlorite irrigation and, as necessary, EDTA flushing, as in the control group.

dental pulp = settings: cited from earlier work
[2] = Experiments with TCA in endodontic treatment including sodium hypochlorite (clinical and radiographic observations); format: in vivo
From the text: FIGS. 7 and 8 show radiographic images from prior to (FIG. 7) and following (FIG. 8) endodontic treatment with a TCA composition as described herein. The image in FIG. 7 is of a tooth that had previously undergone endodontic treatment, but without TCA as a debridement solution.

[3] = cited from earlier work
[4] = endodontic treatment including sodium hypochlorite
[5] = endodontic treatment including sodium hypochlorite, particularly in lower molar cases

**Q.** For `OCl` [Control, sodium hypochlorite, reference compound], which “self-assessed pain, 6 hours” value [1] is on record?
**A.** The value was 1.

**Q.** And the “self-assessed pain, 24 hours” value [1]?
**A.** The value was 0.89.

**Q.** What about the “self-assessed pain, 48 hours” value [1] of the same compound?
**A.** The value was 1.44.

**Q.** What about the “self-assessed pain, 120 hours” value [1] of the same compound?
**A.** Its value is 0.56.

**Q.** And the “self-assessed pain, Before” value [1]?
**A.** The value was 2.67.

**Q.** And the “amount of time that the treatment must be used” value (dental pulp; known debridement method)?
**A.** The value was 10 min.

**Q.** And the “time to dissolve dental pulp” value (dental pulp; strength of 6.25%)?
**A.** The value was ≥ 10 min.

**Q.** Which “subjective levels of pain following endodontic treatment compared to control” value ([1]; compared to the gold standard control, sodium hypochlorite) does the source give for `O=C(O)C(Cl)(Cl)Cl` [TCA, trichloroacetic acid] here?
**A.** The value was “reduced subjective levels of pain”.

**Q.** And the “self-reported pain level at 6 hours” value ([1]; patients presenting with necrosis, 6 hours following treatment)?
**A.** Its value is 0.5.

**Q.** What about the “self-reported pain level at 24 hours” value ([1]; patients presenting with necrosis, 24 hours following treatment) of the same compound?
**A.** Its value is 0.25.

**Q.** And the “self-reported pain level at 48 hours” value ([1]; patients presenting with necrosis, 48 hours following treatment)?
**A.** The value was 0.

**Q.** What about the “self-reported pain level at 120 hours” value ([1]; patients presenting with necrosis, 120 hours following treatment) of the same compound?
**A.** The value was 0.

**Q.** And the “self-reported pain level before treatment” value ([1]; patients presenting with necrosis, before treatment (baseline))?
**A.** Its value is 4.5.

**Q.** And the “self-assessed pain, 6 hours” value [1]?
**A.** The value was 0.7.

**Q.** And the “self-assessed pain, 24 hours” value [1]?
**A.** Its value is 0.5.

**Q.** And the “self-assessed pain, 48 hours” value [1]?
**A.** The value was 0.4.

**Q.** And the “self-assessed pain, 120 hours” value [1]?
**A.** The value was 0.2.

**Q.** And the “self-assessed pain, Before” value [1]?
**A.** Its value is 3.1.

**Q.** And the “radiographic appearance of retreated root (FIG. 8)” value ([2]; after endodontic retreatment with TCA)?
**A.** The value was “thicker irregular deformed material that fully fills the root tip”.

**Q.** And the bleeding [2, 4]?
**A.** The bleeding was “lessened bleeding or elimination of bleeding altogether”.

**Q.** And the cleanliness of apex [2, 4]?
**A.** The cleanliness of apex was “cleaner apex”.

**Q.** What about the inflammation [2, 5] of the same compound?
**A.** Its inflammation is “less inflammation”.

**Q.** And the pain [2, 5]?
**A.** Its pain is “reduced pain”.

**Q.** And the “access of debridement composition to microscopic root canal branches, fins, and anastomoses” value ([2]; in vivo)?
**A.** The value was “improved access”.

**Q.** What about the “removal of debris and material from prior endodontic treatment” value ([2]; in vivo) of the same compound?
**A.** Its value is “improved removal of debris”.

**Q.** What about the pKa [3] of the same compound?
**A.** Its pKa is ~0.6.
